Assay results taken from PubChem BioAssay (NCI).
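Cells were grown in 96-well plates and exposed to each compound for 48 hours at five concentrations; endpoints were interpolated linearly between bracketing concentrations, or set to the highest concentration if not reached. The concentration for 50% growth inhibition is given as GI50. Definition used: TGI = concentration required for complete inhibition of growth.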

Tests used:
Assay in all cases: NCI anticancer screen, dose series, 48 h
A549 NSCLC = system: A549 NSCLC
ACHN renal = system: ACHN renal
DMS 114 small cell lung = system: DMS 114 small cell lung
RXF 393 renal = system: RXF 393 renal
SF-268 CNS = system: SF-268 CNS
SF-295 CNS = system: SF-295 CNS
SNB-78 CNS = system: SNB-78 CNS
UACC-257 melanoma = system: UACC-257 melanoma
SK-MEL-5 melanoma = system: SK-MEL-5 melanoma
SR leukemia = system: SR leukemia

| Compound | TGI (A549 NSCLC) [µM] | TGI (ACHN renal) [µM] | TGI (DMS 114 small cell lung) [µM] | TGI (RXF 393 renal) [µM] | TGI (SF-268 CNS) [µM] | TGI (SF-295 CNS) [µM] | TGI (SNB-78 CNS) [µM] | TGI (UACC-257 melanoma) [µM] | TGI (SK-MEL-5 melanoma) [µM] | TGI (SR leukemia) [µM] | GI50 (A549 NSCLC) [µM] | GI50 (ACHN renal) [µM] | GI50 (RXF 393 renal) [µM] | GI50 (SF-268 CNS) [µM] | GI50 (SF-295 CNS) [µM] | GI50 (SK-MEL-5 melanoma) [µM] | GI50 (SR leukemia) [µM] | GI50 (UACC-257 melanoma) [µM] |
| --- | --- | --- | --- | --- | --- | --- | --- | --- | --- | --- | --- | --- | --- | --- | --- | --- | --- | --- |
| O=C1CC23CC(=O)CC2(C1)c1ccccc1C3=O (stereo not given) | > 100 | > 100 | > 100 | > 100 | > 100 | > 100 | > 100 | > 100 |  |  |  |  |  |  |  |  |  |  |
| O=C(Nc1ccc(Cl)cc1Cl)/C(Cl)=C1/Sc2ccccc2NC1=O | > 100 | 78.9 | 80 | 75.8 | > 100 |  | > 100 |  | 45.8 |  |  |  |  |  |  |  |  |  |
| O=S(=O)(c1ccccc1)C1CN(Cc2ccccc2)CCN(Cc2ccccc2)C1 | > 100 | > 100 | > 100 | 43.3 | 97.7 | > 100 |  | > 100 | 59.3 | > 100 |  |  |  |  |  |  |  |  |
| O=C(Cc1nc2ccccc2s1)NC12CC3CC(CC(C3)C1)C2 | > 100 | > 100 |  |  | > 100 | > 100 | > 100 | > 100 |  | > 100 |  |  |  |  |  |  |  |  |
| C=C1CCC2C(C)(CO)C(O)CCC2(C)C1CC(O)C1=CCOC1=O (stereo not given) | > 100 | > 100 | > 100 |  | > 100 | > 100 |  | > 100 | > 100 | 65.9 |  |  |  |  |  |  |  |  |
| Cc1ccc(S(=O)(=O)NC(=O)Nc2nc(Cl)cc(Cl)n2)cc1 | > 100 | > 100 | > 100 | > 100 | > 100 | > 100 | > 100 | > 100 | > 100 |  |  |  |  |  |  |  |  |  |
| C/C(CC(=O)Nc1ccc([N+](=O)[O-])cc1)=N/N=C(N)N | > 100 | > 100 | > 100 | > 100 | > 100 | > 100 | > 100 | > 100 | > 100 |  |  |  |  |  |  |  |  |  |
| CC(=O)/C=C/c1ccc(N(C)Cc2ccc(C(C)(C)C)cc2)cc1 | 788 | 271 |  | 272 | 332 | 576 |  | 335 | 184 | 499 | 156 | 137 | 131 | 143 | 162 | 55.1 | 137 | 143 |
| CSc1ccc2c(c1)C(=O)c1c-2n(CCCN=[N+]=[N-])c(=O)c2cc([N+](=O)[O-])ccc12 | > 100 | > 100 |  | > 100 | > 100 | > 52.1 |  | > 100 | 16.4 | 5.8 | 3.25 | 0.528 | > 34.4 | 1.98 | 0.553 | 2.56 | 0.2 | 39.9 |
| COc1ccc2cc(C(=O)/C=C/c3ccccc3OC)ccc2c1 | 11.9 | 15.6 |  | 7.63 | > 100 | 7.2 |  | 27.9 | 15.9 |  | 4.69 | 2.97 | 2.54 | > 20.6 | 1.59 | 2.75 | 0.312 | 9.78 |
| COc1ccc(-c2oncc2-c2cc(OC)c3c(c2)OCO3)cc1 | > 100 | > 100 |  | 20.3 | > 100 | 10.3 |  | > 100 | 14.1 | 39.6 | 3.58 | 4.81 | 2.9 | 7.38 | 2.13 | 2.84 | 1.13 | > 20 |
| Cc1ccc(S(=O)(=O)N2C/C(=C\c3cc(F)cc(F)c3)C(=O)/C(=C/c3cc(F)cc(F)c3)C2)cc1 | 10.1 | 0.573 |  | 1.82 | 1.31 | 1.06 |  | 2.33 | 0.908 | 0.296 | 2.42 | 0.232 | 0.535 | 0.347 | 0.291 | 0.272 | 0.0364 | 0.583 |
| Cc1cc(Cl)ccc1Nc1nc(C(F)(F)F)ccc1C(=O)N/N=C/c1c(Cl)cccc1Cl | > 100 | 2.03 |  | > 100 | > 36.4 | 0.376 |  | > 100 | 2.44 | > 100 | 0.51 | 0.298 | 2.04 | 0.354 | 0.0741 | 0.573 | 0.263 | 0.393 |
| N=c1c2c(=O)n3c(nc2nc2sc4ccc(Cl)cc4n12)-c1ccccc1Sc1ccccc1-3 | 12.5 | 16.9 |  | 16.2 | 18.3 | 5.79 |  | 9.39 | 3.86 | 9.14 | 1.98 | 2.61 | 3.23 | 3.52 | 1.41 | 1.42 | 2.15 | 3.14 |
| COC(=O)CCC(=O)C(C#N)c1ccc(Cl)cc1Cl (stereo not given) | > 100 | > 100 |  |  | > 100 | > 100 | > 100 | > 100 |  | > 100 |  |  |  |  |  |  |  |  |
| C[C@H]1[C@H](C)CC[C@]2(C(=O)O)CC[C@]3(C)C(=CC[C@@H]4[C@@]5(C)CC[C@H](OC(=O)/C=C\c6ccc(O)cc6)C(C)(C)[C@@H]5CC[C@]43C)[C@H]12 | > 100 | 12.1 |  | 6.94 | 14.8 | 31.2 |  | 8.49 | 14.3 | 6.66 | 2.02 | 2.89 | 1.52 | 3.23 | 3.03 | 3.85 | 2.69 | 1.46 |
| CNC(=S)N/N=C(/C)CCC/C(C)=N/NC(=S)NC | > 100 | > 100 |  | > 50.3 | > 88.7 | > 100 |  | > 100 | > 100 | > 100 |  |  |  |  |  |  |  |  |
| COc1cc2c(cc1C)NC(=O)/C2=C/c1c(C)nc2sc(C)cn12 | > 100 | > 100 |  | > 100 | > 100 | > 100 |  | > 100 | 64.7 | > 100 | 60.8 | > 100 | > 100 | 85.3 | 45.2 | 24.4 | 22.6 | 62.3 |
